{"source": "patent US6440954B1", "about": "“Inhibition of vascular smooth muscle cell proliferation” (President and Fellows of Harvard College, priority 1997, dated 2002)", "key": {"RASMCs [1]": {"test_system": "RASMCs", "experiment": "[3H]thymidine incorporation in RASMCs", "type": "cell-based, rat", "method": "(§1) RASMCs were harvested from the thoracic aortas of adult male Sprague-Dawley rats (200-250 g) by enzymatic dissociation as described (Tsai et al., Proc. Natl. Acad. Sci. USA 91, 6369-6373 (1994)). The cells were grown in DMEM supplemented with 10% FCS, penicillin (100 U/ml), streptomycin (100 μg/ml), glutamine ([…]), and 25 mM Hepes (pH 7.4) in a humidified incubator (37° C., 5% CO2). HASMCs (Clonetics, San Diego) were grown in M199 medium (GIBCO BRL, Grand Island, N.Y.) supplemented with 20% FCS, penicillin (100 U/ml), streptomycin (100 μg/ml), and 25 mM Hepes (pH 7.4). Cells from passages 5-9 were used. RASMCs and HASMCs were cultured in 24-well plates containing an appropriate growth medium (DMEM plus 10% FCS for RASMCs, and M199 plus 20% FCS for HASMCs). After the cells had grown to 70-80% confluence, they were rendered quiescent by incubation for 72 h in DMEM (for RASMCs) or M199 (for HASMCs) containing 0.4% charcoal/dextran-treated FCS (FIGS. 2a and 2d) or 0.4% calf serum (CS) (FIGS. 2b and 2c). Phenol red-free DMEM was used in the experiments with estradiol (FIG. 2a). […] After incubation, the cells were washed with Dulbecco's PBS, fixed in cold 10% TCA for at least 2 h, and then washed with 95% ethanol. Incorporated [^3H]thymidine was extracted in 0.2 N NaOH and measured in a liquid scintillation counter."}, "HASMCs": {"test_system": "HASMCs", "experiment": "[3H]thymidine incorporation in HASMCs", "type": "cell-based, human", "conditions": "quiescent HASMCs, 24 h incubation, FIG. 2d", "method": "as §1"}, "RASMCs [2]": {"test_system": "RASMCs", "experiment": "Cell counting (RASMC proliferation)", "type": "cell-based, rat", "conditions": "FIG. 3b", "method": "RASMCs (2×10^4) were seeded onto 6-well plates and grown in DMEM supplemented with 10% FCS. […] Medium and progesterone were changed daily. Cells were counted in a Coulter apparatus at various times after their removal from the plates with trypsin-EDTA."}, "[3]": {"test_system": "cyclin A, E, B and D1 mRNAs in RASMCs", "experiment": "Northern analysis of cyclin mRNAs in RASMCs", "type": "cell-based, rat", "conditions": "24 h after treatment, FIG. 4", "method": "Total RNA from RASMCs was prepared from cultured RASMCs by guanidinium isothiocyanate extraction and centrifugation through cesium chloride. […] RNA samples (20 μg/lane) were electrophoresed on 1.3% formaldehyde-agarose gel, and then transferred onto nitrocellulose filters. The filters were hybridized to ^32P-labeled human cyclin probes as described (Lee et al., J. Biol. Chem. 266, 16188-16192 (1991); Lee et al., J. Biol Chem. 269, 12032-12039 (1994)). To normalize RNA content of each lane, the filters were washed at 80° C. in 50% formamide solution to remove the cyclin probes, and then hybridized with oligonucleotide probes for 28S RNA. Hybridized filters were washed in 30 mM NaCl, 3 mM sodium citrate, and 0.1% sodium dodecyl sulfate at 55° C. Radioactive signals were visualized on Kodak XAR film or PhosphorImager screens (Molecular Dynamics, Inc. Sunnyvale, Calif.)."}}, "data": [{"compound": "CC(=O)[C@H]1CC[C@H]2[C@@H]3CCC4=CC(=O)CC[C@]4(C)[C@H]3CC[C@]12C", "note": "[progesterone]", "values": [{"measurement": "effect of serum (FCS) concentration on progesterone-induced inhibition of [3H]thymidine incorporation", "setting": "RASMCs [1]; RASMCs, progesterone 500 nM, FIG. 2c", "value": "counteracted by serum in a dose-dependent manner"}, {"measurement": "effect on [3H]thymidine incorporation in RASMCs", "setting": "RASMCs [1]; quiescent RASMCs, 24 h incubation, FIG. 2a/2b", "value": "inhibited"}, {"measurement": "effect on [3H]thymidine incorporation in HASMCs", "setting": "HASMCs", "value": "dose-dependent inhibition"}, {"measurement": "reduction in RASMC cell growth, dose dependence", "setting": "RASMCs [2]", "value": "dose-dependent"}, {"measurement": "cyclin A mRNA level", "setting": "[3]", "value": "downregulated"}, {"measurement": "cyclin B mRNA level", "setting": "[3]", "value": "did not change"}, {"measurement": "cyclin D1 mRNA level", "setting": "[3]", "value": "did not change"}, {"measurement": "cyclin E mRNA level", "setting": "[3]", "value": "downregulated"}]}]}
